Results as given in patent US20230365577A1, “Photodynamic Therapy and Diagnosis” (RMW CHO Group Limited, priority 2020, published 2023).
Where a name gives a salt, the structure may show the parent alone. Read-outs that look alike come from different tables or passages of the source.

Assays:
[1] = Singlet oxygen (1O2) production rate; assay type: physicochemical
Description: The production of singlet oxygen (^1O2), cellular phototoxicity and light-independent cytotoxicity (“dark toxicity”) of a number of phyllochlorin analogues were compared against chlorin e4 disodium and Talaporfin sodium (mono-L-aspartyl chlorin e6), the active ingredient of Laserphyrin™.

[2] = test system: SKOV3 ovarian cancer cells; assay: Phototoxicity in SKOV3 cells (652 nm laser, AlamarBlue viability); assay type: cell-based, Human
Procedure: (§1) Human ovarian cancer cell line SKOV3 (ATCC #HTB-77) was maintained in Dulbecco's Modified Eagle Medium/Nutrient Mixture F-12 (DMEM/F-12), supplemented with 10% v/v Fetal Bovine Serum, 100 U/mL penicillin and 100 µg/mL streptomycin. Monolayer cultures were grown in a humidified incubator at 37° C. with 5% CO2.
(§2) For in vitro experiments, photosensitizers (stock solution 5.5 mM in 100% DMSO) were diluted in cell culture media (Dulbecco's Modified Eagle Medium/Nutrient Mixture F-12) supplemented with 10% v/v Fetal Bovine Serum, 100 U/mL penicillin, 100 µg/mL streptomycin and 10% w/v Kollidon-12. Once cells had reached ˜80% confluence, spent media was replaced with media containing photosensitizer and cells were incubated for the desired period of time to allow photosensitizer uptake.
(§3) SKOV3 cells were seeded in 96-well black wall plates (Greiner #655090) at a cell density of 5000 cells in 100 μl culture medium per well. On reaching ˜60% confluence, so media was aspirated and replaced with fresh media containing the relevant phyllochlorin analogue from 0-100 μM in DMSO. Cells were incubated for a further 24 hours, allowing uptake of phyllochlorin analogues.
To test for phototoxicity, cells incubated with phyllochlorin analogues (0-10 μM in DMSO) had culture media replaced after 24 hours (as above) and were then exposed to a 652 nm laser (Invion) with laser density at 50 mW/cm^2 for 5 mins (total 15 J/cm^2). Following activation, cells were cultured for a further 24 hours. Media was then replaced with fresh media containing AlamarBlue, and % viable cells remaining assessed as above. Controls included cells treated with phyllochlorin analogues but not activated by laser light; cells without phyllochlorin analogue treatment but with laser light; and untreated controls. All measurements were made in quadruplicate.
(§4) For comparative purposes, phyllochlorin analogues were tested and compared against both chlorin e4 disodium and Talaporfin sodium, a clinically approved photosensitizer used in the photodynamic treatment of lung cancers. Phototoxicity IC90 values and dark toxicity IC10 values were calculated using a log[inhibitor]-vs normalized response dose curve with variable slope, using the formula Y=100/(1+(IC90/X)^HillSlope (phototoxicity IC90) or Y=100/(1+(IC10/X)^HillSlope (dark toxicity IC10).

[3] = test system: SKOV3 ovarian cancer cells; assay: Inherent cytotoxicity (dark toxicity) in SKOV3 cells (AlamarBlue viability); assay type: cell-based, Human
Procedure: as §1, §2
as §3, with “confluence,” for “confluence, so”
To test for inherent cytotoxicity (i.e. “dark toxicity”) of the phyllochlorin analogue the culture media was replaced after 24 hours with fresh media containing 10% (v/v) AlamarBlue Cell Viability Reagent (ThermoFisher) and cells incubated at 37° C. for 6 hours. Untreated cells were used as a control. Fluorescence (Ex 555 nm/Em 596 nm) was measured using a Cytation 3 Multimode Plate Reader (Biotek), and cytotoxicity assessed according to the % viable cells remaining. All measurements were made in quadruplicate.
as §4

[4] = SKOV3, 24 h uptake, 652 nm laser 50 mW/cm2 5 mins (15 J/cm2), viability 24 h later, read-out: Cellular Toxicity: Phototoxicity IC90
[5] = Homo sapiens, SK-OV-3, light or radiation study, SKOV3, 24 h uptake, 652 nm laser 50 mW/cm2 5 mins (15 J/cm2), viability 24 h later, read-out: Cellular Toxicity: Phototoxicity IC90
[6] = Homo sapiens, SK-OV-3, light or radiation study, SKOV3, read-out: Phototoxicity apparent IC90
[7] = Homo sapiens, SK-OV-3, light or radiation study, read-out: Cellular Toxicity: Phototoxicity IC90, SKOV3, 24 h uptake, 652 nm laser 50 mW/cm2 5 mins (15 J/cm2), viability 24 h later

Row | Singlet Oxygen Production (slope) 1O2 [1] | Compound | Cellular Toxicity: Dark toxicity IC10 ([3]; human, 24 h) | IC90 [2, 5] | also measured
1 | 423.4 | 3-((7S,8S)-18-ethyl-2,5,8,12,17-pentamethyl-13-vinyl-7H,8H-porphyrin-7-yl)-N-(2-(2-hydroxyethoxy)ethyl)-N-methylpropanamide zinc complex [Compound 21] |  |  | Fold decrease in the rate of ROS production on Zn2+ complexation ([1]; compound 21 versus compound 18): ~2.5 fold; IC90 [2, 4]: 4770 nM; Cellular Toxicity: Dark toxicity IC10 [3]: 8170 nM
2 | 404.7 | 3-((7S,8S)-18-ethyl-2,5,8,12,17-pentamethyl-13-vinyl-7H,8H-porphyrin-7-yl)-N-methyl-N-(3-(((2S,3R,4S,5S,6R)-3,4,5-trihydroxy-6-(hydroxymethyl)tetrahydro-2H-pyran-2-yl)thio)propyl)propanamide zinc complex [Compound 19] |  |  | IC90 [2, 4]: 12800 nM; Cellular Toxicity: Dark toxicity IC10 [3]: 20200 nM
3 |  | C=Cc1c(C)c2cc3nc(c(C)c4cc(C)c(cc5nc(cc1[nH]2)C(C)=C5CC)[nH]4)[C@@H](CCC(=O)O)[C@@H]3C [Compound 1a, phyllochlorin potassium salt] | 12410 nM |  | Singlet Oxygen Production (slope) 1O2 ([1]; potassium salt): 760.9; IC90 ([2]; SKOV3, 24 h uptake, 652 nm laser 50 mW/cm2 5 mins (15 J/cm2), viability 24 h later, potassium salt, read-out: Cellular Toxicity: Phototoxicity IC90): 470 nM
4 |  | C=Cc1c(C)c2cc3nc(c(C)c4cc(C)c(cc5nc(cc1[nH]2)C(C)=C5CC)[nH]4)[C@@H](CCC(=O)O)[C@@H]3C [Compound 1b, phyllochlorin lithium salt] | 22130 nM |  | Singlet Oxygen Production (slope) 1O2 ([1]; lithium salt): 841.7; IC90 ([2]; SKOV3, 24 h uptake, 652 nm laser 50 mW/cm2 5 mins (15 J/cm2), viability 24 h later, lithium salt, read-out: Cellular Toxicity: Phototoxicity IC90): 1400 nM
5 | 2191.0 | C=Cc1c(C)c2cc3nc(c(C)c4cc(C)c(cc5nc(cc1[nH]2)C(C)=C5CC)[nH]4)[C@@H](CCC(=O)N(C)CCOCCOCCO)[C@@H]3C [Compound 4, 3-((7S,8S)-18-ethyl-2,5,8,12,17-pentamethyl-13-vinyl-7H,8H-porphyrin-7-yl)-N-(2-(2-(2-hydroxyethoxy)ethoxy)ethyl)-N-methylpropanamide] | 16410 nM | 120 nM | 
6 | 2385.0 | C=Cc1c(C)c2cc3nc(c(C)c4cc(C)c(cc5nc(cc1[nH]2)C(C)=C5CC)[nH]4)[C@@H](CCC(=O)N(C)CCCO)[C@@H]3C [Compound 5, 3-((7S,8S)-18-ethyl-2,5,8,12,17-pentamethyl-13-vinyl-7H,8H-porphyrin-7-yl)-N-(3-hydroxypropyl)-N-methylpropanamide] | 20820 nM | 50 nM | Rate of ROS production relative to chlorin e4 disodium and Talaporfin sodium [1]: more than double; IC90 [2, 6]: < 100 nM
7 | 1494.0 | C=Cc1c(C)c2cc3nc(c(C)c4cc(C)c(cc5nc(cc1[nH]2)C(C)=C5CC)[nH]4)[C@@H](CCC(=O)N(C)CCCCCO)[C@@H]3C [Compound 7, 3-((7S,8S)-18-ethyl-2,5,8,12,17-pentamethyl-13-vinyl-7H,8H-porphyrin-7-yl)-N-(5-hydroxypentyl)-N-methylpropanamide] | 14270 nM | 50 nM | IC90 [2, 6]: < 100 nM
8 | 1314.0 | C=Cc1c(C)c2cc3nc(c(C)c4cc(C)c(cc5nc(cc1[nH]2)C(C)=C5CC)[nH]4)[C@@H](CCC(=O)N(C)CCCCCS[C@@H]1O[C@H](CO)[C@@H](O)[C@H](O)[C@H]1O)[C@@H]3C [Compound 8, 3-((7S,8S)-18-ethyl-2,5,8,12,17-pentamethyl-13-vinyl-7H,8H-porphyrin-7-yl)-N-methyl-N-(5-(((2S,3R,4S,5S,6R)-3,4,5-trihydroxy-6-(hydroxymethyl)tetrahydro-2H-pyran-2-yl)thio)pentyl)propanamide] | 12550 nM | 60 nM | IC90 [2, 6]: < 100 nM; Fold increase in cellular phototoxicity compared to compound 2 ([2]; SKOV3, IC90): approximately 4 fold
9 | 1691.0 | C=Cc1c(C)c2cc3nc(c(C)c4cc(C)c(cc5nc(cc1[nH]2)C(C)=C5CC)[nH]4)[C@@H](CCC(=O)N(C)CCO)[C@@H]3C [Compound 10, 3-((7S,8S)-18-ethyl-2,5,8,12,17-pentamethyl-13-vinyl-7H,8H-porphyrin-7-yl)-N-(2-hydroxyethyl)-N-methylpropanamide] | 14940 nM | 160 nM | 

Row | Compound | Singlet Oxygen Production (slope) 1O2 [1] | Cellular Toxicity: Dark toxicity IC10 ([3]; human, 24 h) | IC90 [2, 5] | also measured
10 | C=Cc1c(C)c2cc3nc(c(C)c4cc(C)c(cc5nc(cc1[nH]2)C(C)=C5CC)[nH]4)[C@@H](CCC(=O)O)[C@@H]3C [Compound 1d, phyllochlorin arginine salt] | 833.9 | 18150 nM |  | IC90 ([2]; read-out: Cellular Toxicity: Phototoxicity IC90, SKOV3, 24 h uptake, 652 nm laser 50 mW/cm2 5 mins (15 J/cm2), viability 24 h later): 1420 nM
11 | C=Cc1c(C)c2cc3nc(c(C)c4cc(C)c(cc5nc(cc1[nH]2)C(C)=C5CC)[nH]4)[C@@H](CCC(=O)O)[C@@H]3C [Compound 1e, phyllochlorin meglumine salt] | 938.8 | 20730 nM |  | IC90 [2, 4]: 1790 nM
12 | C=Cc1c(C)c2cc3nc(c(C)c4cc(C)c(cc5nc(cc1[nH]2)C(C)=C5CC)[nH]4)[C@@H](CCC(=O)N(C)CCC[S+]([O-])[C@@H]1O[C@H](CO)[C@@H](O)[C@H](O)[C@H]1O)[C@@H]3C (stereo partly drawn) [Compound 9, 3-((7S,8S)-18-ethyl-2,5,8,12,17-pentamethyl-13-vinyl-7H,8H-porphyrin-7-yl)-N-methyl-N-(3-(((2S,3R,4S,5S,6R)-3,4,5-trihydroxy-6-(hydroxymethyl)tetrahydro-2H-pyran-2-yl)thio)propyl)propanamide sulphoxide] | 1396.0 | 70240 nM |  | IC90 [2, 7]: 190 nM
13 | C=Cc1c(C)c2cc3nc(c(C)c4cc(C)c(cc5nc(cc1[nH]2)C(C)=C5CC)[nH]4)[C@@H](CCC(=O)N(C)CCCS[C@@H]1O[C@H](COC(C)=O)[C@@H](OC(C)=O)[C@H](OC(C)=O)[C@H]1OC(C)=O)[C@@H]3C [Compound 11, (2R,3R,4S,5R,6S)-2-(acetoxymethyl)-6-((3-(3-((7S,8S)-18-ethyl-2,5,8,12,17-pentamethyl-13-vinyl-7H,8H-porphyrin-7-yl)-N-methylpropanamido)propyl)thio)tetrahydro-2H-pyran-3,4,5-triyl triacetate] | 1434.0 | 29000 nM |  | IC90 [2, 7]: 500 nM
14 | C=Cc1c(C)c2cc3nc(c(C)c4cc(C)c(cc5nc(cc1[nH]2)C(C)=C5CC)[nH]4)[C@@H](CCC(=O)N(C)CCCS[C@@H]1O[C@H](COC(=O)[C@@H](N)C(C)C)[C@@H](O)[C@H](O)[C@H]1O)[C@@H]3C [Compound 12, ((2R,3S,4S,5R,6S)-6-((3-(3-((7S,8S)-18-ethyl-2,5,8,12,17-pentamethyl-13-vinyl-7H,8H-porphyrin-7-yl)-N-methylpropanamido)propyl)thio)-3,4,5-trihydroxytetrahydro-2H-pyran-2-yl)methyl L-valinate hydrochloride] | 1121.0 | 28360 nM |  | IC90 [2, 7]: 180 nM
15 | C=Cc1c(C)c2cc3nc(c(C)c4cc(C)c(cc5nc(cc1[nH]2)C(C)=C5CC)[nH]4)[C@@H](CCC(=O)N[C@H]1C(O)O[C@H](CO)[C@@H](O)[C@@H]1O)[C@@H]3C (stereo partly drawn) [Compound 13, phyllochlorin 2-deoxyglucosamine-propylamide] | 1423.0 | 13020 nM |  | IC90 [2, 7]: 120 nM
